Laboratory results taken from patent US20040151677A1, “1,3,5-Triazine sunscreens solubilized in mixed phthalimide eutectics” (SOCIETE L'OREAL, S.A., priority 2002, published 2004).

Experiments:
[1] = Comparative study of the solubility of a triazine derivative in different solvents; assay type: physicochemical; conditions: heated to 83° C., crystals observed after 24 hours and cooling to room temperature
Description: Comparative Study of the Solubility of a Triazine Derivative in Different Solvents The solubility of a triazine derivative (i.e., 2,4,6-tris(diisobutyl 4′-aminobenzalmalonate)-s-triazine) in different solvents was determined by means of the following test:
20 g of solvent are added, at room temperature, to 5 g of screening agent, the mixture thus obtained is brought to 83° C. using a water bath, the presence or absence of crystals is observed after 24 hours and cooling to room temperature.
The results obtained are collated in the table below (the chemical names are given in the CTFA nomenclature, 5th edition, 1993).

[2] = Test of in vitro efficacy: in vitro sun protection factor (Diffey method) of O/W emulsions; conditions: screening agent 5% in O/W support, mean of three SPF values
Text: Test of In Vitro Efficacy:
The method for evaluating the protection factor used is the in vitro method described by B. L. Diffey et al. in J. Soc. Cosmet. Chem. 40-127-133 (1989), which consists in determining the monochromatic protection factors every 5 nm in a wavelength range from 290 to 400 nm, and in calculating therefrom the sun protection factor according to a given mathematical equation.
Two screening agents of triazine type were formulated in a support of O/W type, at 5% by weight, in the solvent according to the invention and in a comparative solvent (Finsolv TN), and three SPF values, the mean and the standard deviation of which are collated in the table below, were determined for each formulation: […]

[3] = solvent 15% C12-C15 alkyl benzoate "Finsolv TN" (comparative)
[4] = solvent 15% n-butylphthalimide/isopropylphthalimide Pelemol BIP (invention)

SMILES	SOLUBILITY OF THE TRIAZINE SCREENING AGENT ([1]; solvent: C8-C12 fatty acid triglycerides "Miglyol 812") [%]	SOLUBILITY OF THE TRIAZINE SCREENING AGENT ([1]; solvent: C12-C15 alkyl benzoate "Finsolv TN") [%]	SOLUBILITY OF THE TRIAZINE SCREENING AGENT ([1]; solvent: PPG-3 myristyl ether "Witconol APM") [%]	SOLUBILITY OF THE TRIAZINE SCREENING AGENT ([1]; solvent: n-butylphthalimide/isopropylphthalimide eutectic mixture Pelemol BIP (invention)) [%]	Mean SPF (Standard Deviation) [2, 3]	Mean SPF (Standard Deviation) [2, 4]
CC(C)COC(=O)C(=Cc1ccc(Nc2nc(Nc3ccc(C=C(C(=O)OCC(C)C)C(=O)OCC(C)C)cc3)nc(Nc3ccc(C=C(C(=O)OCC(C)C)C(=O)OCC(C)C)cc3)n2)cc1)C(=O)OCC(C)C [2,4,6-tris(diisobutyl 4′-aminobenzalmalonate)-s-triazine]	<10	<10	<10	40	4.1	8.0
CCCCC(CC)COc1ccc(-c2nc(-c3ccc(OC)cc3)nc(-c3ccc(OCC(CC)CCCC)cc3O)n2)c(O)c1 (centres unmarked) [Anisotriazine]					8.5	11.4
